The record followed here is patent publication US11015216B2, “Substituted imidazo[1,2-a]pyrazines as luciferase substrates” (PROMEGA CORPORATION, priority 2016, dated 2021).

One test relates to luciferase. The test is described as follows: Additional luciferase substrate assay, compared to known analogue C-1 (Table 3). The test is classed as biochemical. The note with it: relative to C-1 (=1). The procedure: (§1) Luminescence Assay Procedure: Each compound to be screened was dissolved in DMSO (5 mM) and then further diluted to 100 uM in NANO-GLOR Luciferase Assay Buffer. Each diluted substrate was then combined in equal volumes with purified NanoLuc® Luciferase diluted into CO2 independent media+10% FBS. Initial light output for each substrate was measured in a GloMax®-Multi+ luminometer three minutes after substrate addition and then at five minute intervals as a means to determine signal half-life.
The compounds of formula (I) were also evaluated for their ability to be luciferase substrates in an additional assay.

In another test the target is NanoLuc® Luciferase (Oplophorus gracilirostris, UniProt Q9GV45, A31E/A60N/A81I/F95D/I117V/K70R/L54V/L99Q/M102K/N193R/P142E/Q151K/Q38R/Q45L/V71I/Y165I). The class given is biochemical. Conditions: ratio to coelenterazine (=1); for I (relative light units, ratio in comparison to native coelenterazine): initial light output three minutes after substrate addition; for Half-life (signal half-life, ratio in comparison to native coelenterazine): read at five minute intervals. The procedure: as §1
NanoLuc® Luciferase, sequence (Q9GV45 other isoform, or with tags, fused parts or gaps with the stated changes): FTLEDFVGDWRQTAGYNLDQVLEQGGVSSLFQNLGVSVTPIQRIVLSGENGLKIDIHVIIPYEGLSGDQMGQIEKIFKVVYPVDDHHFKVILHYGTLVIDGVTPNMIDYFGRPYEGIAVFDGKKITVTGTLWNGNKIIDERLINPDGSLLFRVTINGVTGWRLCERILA
A subset of the synthesized coelenterazine analogues (compounds of formula (I)) were evaluated for their suitability as luciferase substrates. NANOLUC® luciferase was employed for the screening because it is a small (19 kDa), stable, and particularly bright enzyme.

The structures appear in SMILES notation.

Turning to `O=c1c(Cc2cn3ccsc3n2)nc2c(Cc3ccccc3)[nH]c(-c3ccccc3)cn1-2` [Compound 80], in the test on luciferase, the “RLU (@100 uM)” value is recorded as 0.052. Besides, on NanoLuc® Luciferase, the “I (relative light units, ratio in comparison to native coelenterazine)” value is reported as 2.166 and the “Half-life (signal half-life, ratio in comparison to native coelenterazine)” value is on record as 1.62.

On to `COc1ncc(Cc2nc3c(Cc4ccccc4)[nH]c(-c4ccccc4)cn-3c2=O)cn1` [Compound 15], for which the “RLU (@100 uM)” value with luciferase was determined as 0.014. Also, on NanoLuc® Luciferase, the “I (relative light units, ratio in comparison to native coelenterazine)” value came to 0.583 and the “Half-life (signal half-life, ratio in comparison to native coelenterazine)” value turned out to be 0.88.

In the case of `COc1ccc(Cc2nc3c(Cc4ccccc4)[nH]c(-c4ccccc4)cn-3c2=O)cc1` [Compound 8], the “RLU (@100 uM)” value in the test on luciferase amounted to 0.56. At NanoLuc® Luciferase, the “I (relative light units, ratio in comparison to native coelenterazine)” value is given as 23.333 and the “Half-life (signal half-life, ratio in comparison to native coelenterazine)” value is 0.38.

Consider `O=c1c(Cc2ccc(F)nc2F)nc2c(Cc3ccccc3)[nH]c(-c3ccccc3)cn1-2` [Compound 65], for which the “RLU (@100 uM)” value with luciferase is on record as 0.26. At NanoLuc® Luciferase, the “I (relative light units, ratio in comparison to native coelenterazine)” value came to 10.833 and the “Half-life (signal half-life, ratio in comparison to native coelenterazine)” value is listed as 0.62.

`COc1ccc(Cc2nc3c(Cc4ccccc4)[nH]c(-c4ccccc4)cn-3c2=O)c(OC)n1` [Compound 73]: the “RLU (@100 uM)” value with luciferase amounted to 0.16. Further, on NanoLuc® Luciferase, the “I (relative light units, ratio in comparison to native coelenterazine)” value was 6.666 and the “Half-life (signal half-life, ratio in comparison to native coelenterazine)” value is given as 0.93.

Consider `Nc1ccc(Cc2nc3c(Cc4ccccc4)[nH]c(-c4ccccc4)cn-3c2=O)cc1` [Compound 9], for which, in the test with luciferase, the “RLU (@100 uM)” value is on record as 0.025. Also, at NanoLuc® Luciferase, the “I (relative light units, ratio in comparison to native coelenterazine)” value amounted to 1.041 and the “Half-life (signal half-life, ratio in comparison to native coelenterazine)” value turned out to be 0.93.

For the compound `O=c1c(Cc2cncc(F)c2)nc2c(Cc3ccccc3)[nH]c(-c3ccccc3)cn1-2` [Compound 66], in the test with luciferase, the “RLU (@100 uM)” value came out at 0.039. For the same compound, at NanoLuc® Luciferase, the “I (relative light units, ratio in comparison to native coelenterazine)” value came to 1.625 and the “Half-life (signal half-life, ratio in comparison to native coelenterazine)” value is reported as 0.98.

Turning to `O=c1c(Cc2cccnc2F)nc2c(Cc3ccccc3)[nH]c(-c3ccccc3)cn1-2` [Compound 67], the “RLU (@100 uM)” value in the test on luciferase worked out at 0.11. On NanoLuc® Luciferase, the “I (relative light units, ratio in comparison to native coelenterazine)” value was determined as 4.583 and the “Half-life (signal half-life, ratio in comparison to native coelenterazine)” value worked out at 1.14.

As for `O=c1c(Cc2ccc(F)cc2F)nc2c(Cc3ccccc3)[nH]c(-c3ccccc3)cn1-2` [Compound 3], the “RLU (@100 uM)” value with luciferase is given as 0.93. For the same compound, at NanoLuc® Luciferase, the “I (relative light units, ratio in comparison to native coelenterazine)” value came to 38.75 and the “Half-life (signal half-life, ratio in comparison to native coelenterazine)” value stood at 0.23.

On to `CC(C)(C)c1ccc(Cc2nc3c(Cc4ccccc4)[nH]c(-c4ccccc4)cn-3c2=O)cc1` [Compound 5], for which the “RLU (@100 uM)” value in the test on luciferase is 0.093. Further, on NanoLuc® Luciferase, the “I (relative light units, ratio in comparison to native coelenterazine)” value was found to be 3.875 and the “Half-life (signal half-life, ratio in comparison to native coelenterazine)” value amounted to 0.43.

Regarding `O=c1c(Cc2ccc(Cl)nc2Cl)nc2c(Cc3ccccc3)[nH]c(-c3ccccc3)cn1-2` [Compound 75], the “RLU (@100 uM)” value in the test on luciferase came to 0.023. On NanoLuc® Luciferase, the “I (relative light units, ratio in comparison to native coelenterazine)” value is 0.958 and the “Half-life (signal half-life, ratio in comparison to native coelenterazine)” value stood at 0.57.

Take `O=c1c(Cc2cnns2)nc2c(Cc3ccccc3)[nH]c(-c3ccccc3)cn1-2` [Compound 82]: the “RLU (@100 uM)” value in the test on luciferase stood at 0.13. For the same compound, at NanoLuc® Luciferase, the “I (relative light units, ratio in comparison to native coelenterazine)” value came out at 5.416 and the “Half-life (signal half-life, ratio in comparison to native coelenterazine)” value was determined as 1.19.

On to `COc1ccc(Cc2nc3c(Cc4ccccc4)[nH]c(-c4ccccc4)cn-3c2=O)cn1` [Compound 71], for which, in the test on luciferase, the “RLU (@100 uM)” value turned out to be 0.65. In addition, at NanoLuc® Luciferase, the “I (relative light units, ratio in comparison to native coelenterazine)” value worked out at 27.083 and the “Half-life (signal half-life, ratio in comparison to native coelenterazine)” value is reported as 0.14.

Turning to `O=c1c(Cc2cc3ccccc3s2)nc2c(Cc3ccccc3)[nH]c(-c3ccccc3)cn1-2` [Compound 6], the “RLU (@100 uM)” value in the test on luciferase stood at 0.33. Also, at NanoLuc® Luciferase, the “I (relative light units, ratio in comparison to native coelenterazine)” value turned out to be 13.75 and the “Half-life (signal half-life, ratio in comparison to native coelenterazine)” value was 0.33.
